Key:
[1] = test system: CVB3/plasma induced IFNα production by PBMCs; test: CVB3/plasma induced IFNα production by PBMCs (DELFIA); format: cell-based, human; conditions: CVB3 infection of PBMCs; healthy donor plasma preincubated 1 h with the VP4 protein before CVB3; 48 h; positive control 323 IU/ml
Method: VP4, H antigen or mock proteins were preincubated for 1 h at 37° C. at different concentrations with plasma from 5 healthy subjects diluted at optimal dilution (1/10 or 1/100 ). CVB3 or CVB4 were then added for 1 hour before incubating with PBMCs. […] On the contrary, the mock proteins isolated from non-infected Hep-2 cells have non effect on the IFNα production.
PBMCs separated from whole heparinated blood are distributed into microwells (plate of 96 wells), at the rate of 5 to 8.10^5 cell in 100 μl of supplemented RPMI medium by well. The infection of PBMC is made with a final volume of 100 μl of preparation in each well. […]
(§1) The concentration of the produced IFNα is determined with a sensitive and specific technique, the DELFIA method (Dissociation Enhanced Lanthanide FluoroImmmoAssay) (Rönnblom and al 1997).
The dosage of IFNα is performed following the DELFIA principle (Dissociation Enhanced Lanthanide FluoroImmunoAssay), based on a immunofluorescence in retarded phase method using antibodies binding IFNα of which one is labelled with europium. The use of an activation solution will release the europium conjugated with antibodies and emit a fluorescence proportional to the amount of produced IFNα and measured with a fluorometer (fluorometer LKB Wallac 1230 ARCOSO®, Turku, Finlande). […]

[2] = test system: different CVB serotypes (CVB1 to CVB6)/plasma induced IFNα production by PBMCs; test: IFNα production during infection of PBMCs by different CVB serotypes in presence of plasma preincubated with VP4-CVB4E2; format: cell-based, human; conditions: plasma 1/10 preincubated 1 h with VP4 recombinant protein of CVB4E2 diluted 1/10
Method: PBMCs separated from whole heparinated blood are distributed into microwells (plate of 96 wells), at the rate of 5 to 8.10^5 cell in 100 μl of supplemented RPMI medium by well. The infection of PBMC is made with a final volume of 100 μl of preparation in each well. After incubation for 48 h at 37° C. under a 5% CO2 atmosphere and 90% humidity, the supernatant is harvested and used immediately for IFNα dosage, or clarified by centrifugation for 10 minutes at 180×g and stored at −80° C. until dosage of the produced IFNα.
as §1
The dosage of IFNα is performed following the DELFIA principle (Dissociation Enhanced Lanthanide FluoroImmunoAssay), based on a immunofluorescence in retarded phase method using antibodies binding IFNα of which one is labelled with europium. The use of an activation solution will release the europium conjugated with antibodies and emit a fluorescence proportional to the amount of produced IFNα and measured with a fluorometer (fluorometer LKB Wallac 1230 ARCOSO®, Turku, Finlande).
Monoclonal anti-IFNα antibodies LT 273 (5.4 mg/ml) and LT 293 (4.8 mg/ml) supplied by Dr Gunar Alm (Uppsala, Sweden) are coated to the bottom of the wells after an incubation for 12 hours at room temperature. […]

“recombinant VP4 protein: recombinant VP4 protein of CVB4E2, made in E. coli as MBP-VP4 fusion and cleaved by Factor Xa” was tested, and the IFNα production [1] was 308 IU/ml and the “IFNα production with CVB serotypes other than CVB4E2” value [2] was “remains high and stable”.

From patent US7534558B2, “In vitro diagnostic test for enterovirus infections” (Universite de Lille 2 Droit Et Sante, priority 2003, dated 2009)
